Assay results: US4175081A, “5-Substituted thiadiazole ureas” (priority 1977, dated 1979)

What was measured:
Crabgrass (CG) [1] = test: Post-emergence herbicide test; type: in vivo, Digitaria sanquinalis; conditions: Digitaria sanguinalis, post-emergence, 336 h, two weeks after treatment
Method in brief: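 Crabgrass (Digitaria sanquinalis) was surface seeded individually in 3' plastic pots of potting soil, covered with screened soil, and watered by sub-irrigation in greenhouse trays. Planting was staggered so seedlings reached the target stage together. Post-emergence sprays were applied in a hood with a removable belt and fixed nozzle, and control was visually rated two weeks after treatment.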

Crabgrass (CG) [2] = test: Pre-emergence herbicide test; type: in vivo, Digitaria sanquinalis; conditions: Digitaria sanguinalis, pre-emergence, 336 h, two weeks after treatment
Method in brief: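 Crabgrass (Digitaria sanquinalis) was surface seeded in 3' plastic pots of potting soil, covered with screened soil, and watered by sub-irrigation in greenhouse trays. Pots were seeded one day before spraying in a hood with a moving belt and fixed nozzle. Plants stayed in the greenhouse on sub-irrigation, and pre-emergence control was rated visually two weeks after treatment.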

Cotton (CT) [3] = test: Post-emergence herbicide test; type: in vivo, Gossypium hirsutum var. DPL smooth leaf; conditions: Gossypium hirsutum, post-emergence, 336 h, two weeks after treatment
Method in brief: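 This greenhouse post-emergence test measured how well spray treatments controlled cotton. Seedlings of Gossypium hirsutum var. DPL smooth leaf, with expanded cotyledons and a first true leaf 1' in length, were sprayed with 50 ml formulations in a belt-fed spray hood. They were then returned to the greenhouse and watered only by sub-irrigation. Injury was scored visually as % control after two weeks.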

Bean (BN) [4] = test: Pre-emergence herbicide test; type: in vivo, Phaseolus vulgaris var. Black Valentine; conditions: Phaseolus vulgaris, 336 h, two weeks after treatment
Method in brief: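 Visual injury/control ratings were taken two weeks post-spray on sub-irrigated Phaseolus vulgaris var. Black Valentine. Pots were sown a day before treatment. Pre-emergence spray delivered 8 lbs actual compound per acre (or 4 lbs/acre) at 38 gallons per acre.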

Turnip (TP) [5] = test: Pre-emergence herbicide test; type: in vivo, Brassica sp.; conditions: Brassica rapa, pre-emergence, 336 h, two weeks after treatment
Method in brief: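 In this pre-emergence greenhouse test, turnip was seeded on the surface of potting soil in 3' plastic pots, lightly covered with screened soil, and watered from below. One day later the pots were sprayed in a belt-fed spray hood. Watering continued only by sub-irrigation, and percent control was visually scored two weeks after treatment.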

Bean (BN) [6] = test: Post-emergence herbicide test; type: in vivo, Phaseolus vulgaris var. Black Valentine; conditions: Phaseolus vulgaris, post-emergence, 336 h, two weeks after treatment
Method in brief: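 Bean seedlings (Phaseolus vulgaris var. Black Valentine) were grown in potting soil in 3' pots until the primary leaves expanded. They were then sprayed under a hood with a removable belt and fixed nozzle, using 50 ml formulations. Afterward they were returned to the greenhouse and watered only by sub-irrigation. Percent control was judged visually two weeks after treatment.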

Amaranth pigweed (PW) = test: Pre-emergence herbicide test; type: in vivo, Amaranthus retroflexus; conditions: 336 h, two weeks after treatment
Experimental: All crop and weed species were planted individually in 3' plastic pots containing potting soil. Four seeds each of corn, cotton, and snapbeans were seeded to a depth equal to the diameter of the seed. All other species were surface seeded and sprinkled with screened soil in an amount sufficient to cover the seed. Immediately after planting, all pots were watered by sub-irrigation in greenhouse trays. Pots for the pre-emergence phase were seeded one day before treatment.
Compounds were tested at rates of application equivalent to 8 lbs. of actual compound per acre in a spray volume of 38 gallons per acre. Spray hood constants required to deliver the above volume are as follows:
Formulations for spray applications were prepared in 50 ml volumes with the following three components:
Formulations for the 4 lbs/acre rate were prepared by adjusting the amount of active ingredient accordingly.
Spray applications were made in a hood containing a removable belt and fixed spray nozzle. For passage through the spray hood, one pot of each specie (pre-emergence phase) was placed on the rear half of the flat. Treatments were removed to the greenhouse after spraying. Watering during the observation period was done only by sub-irrigation.
Two weeks after treatment, pre- and post-emergence injury or control was visually rated, and the results were as shown in the following tables. Pre-emergence data are provided in TABLE III and post-emergence data are provided in TABLE IV, for compounds having the formula illustrated in TABLE I. Correspondingly, pre-emergence and post-emergence data, respectively, are set forth in TABLES V AND VI, for compounds having the formula illustrated in TABLE II.

Cotton (CT) [7] = test: Pre-emergence herbicide test; type: in vivo, Gossypium hirsutum var. DPL smooth leaf; conditions: Gossypium hirsutum, 336 h, two weeks after treatment
Method in brief: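 Visual injury/control ratings were taken at two weeks post-spray. Pots seeded a day earlier received compound pre-emergence at 8 lbs/acre, or 4 lbs/acre, in a 38 gallon/acre spray volume, and were then held in the greenhouse, watered only from below.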

Barnyard grass (BG) = test: Pre-emergence herbicide test; type: in vivo; conditions: Echinochloa crus-galli, 336 h, two weeks after treatment
Method in brief: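 Greenhouse pre-emergence spray test: pots seeded one day before treatment received compound at rates of 8 or 4 lb/acre (38 gal/acre). Visual injury/control scores for Echinochloa crus-galli taken at two weeks, with watering by sub-irrigation only.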

Johnson grass (JG) = test: Pre-emergence herbicide test; type: in vivo, Sorgum helepense; conditions: Sorghum halepense, 336 h, two weeks after treatment
Method in brief: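 Visual injury or control rating two weeks post-treatment, after pre-emergence spray of 8 or 4 lbs active per acre (38 gal/acre) onto pots sown the previous day. Greenhouse watering by sub-irrigation only.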

Turnip (TP) [8] = test: Post-emergence herbicide test; type: in vivo, Brassica sp.; conditions: Brassica rapa, post-emergence, 336 h, two weeks after treatment
Method in brief: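 A greenhouse post-emergence herbicide test on turnip. Seeds were sown on the surface of potting soil in 3' plastic pots, lightly covered with screened soil and watered from below. Planting was timed so seedlings had 1 or 2 true leaves above the cotyledons at spraying, done in a hood with a fixed nozzle. Control or injury was scored by eye after two weeks.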

Corn (CN) = test: Pre-emergence herbicide test; type: in vivo; conditions: Zea mays, 336 h, two weeks after treatment
Method in brief: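 Visual injury/control ratings were made 2 weeks post-spray on corn pots seeded (4 seeds, seed-diameter depth) the day before treatment. Application was a belt-hood spray of 38 gal/acre delivering 8 lbs active per acre, with a 4 lbs/acre rate also formulated. Watering was by sub-irrigation throughout.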

SMILES: CCS(=O)(=O)c1nnc(N(C)C(=O)NC)s1 [Example 91]
- pest or weed control at 560.425 g/ha (Crabgrass (CG) [1]; 0.5 lb/acre): 40%
- pest or weed control at 1120.85 g/ha (Crabgrass (CG) [1]; 1 lb/acre): 60%
- pest or weed control (Crabgrass (CG) [1]; 2 lb/acre): 70%
- pest or weed control at 4483.4 g/ha (Crabgrass (CG) [1]; 4 lb/acre): 100%
- pest or weed control at 560.425 g/ha (Crabgrass (CG) [2]; 0.5 lb/acre): 80%
- pest or weed control at 1120.85 g/ha (Crabgrass (CG) [2]; 1 lb/acre): 90%
- pest or weed control at 2241.7 g/ha (Crabgrass (CG) [2]; 2 lb/acre): 90%
- pest or weed control at 4483.4 g/ha (Crabgrass (CG) [2]; 4 lb/acre): 100%
- pest or weed control at 560.425 g/ha (Cotton (CT) [3]; 0.5 lb/acre): 100%
- pest or weed control at 1120.85 g/ha (Cotton (CT) [3]; 1 lb/acre): 100%
- pest or weed control at 2241.7 g/ha (Cotton (CT) [3]; 2 lb/acre): 100%
- pest or weed control at 4483.4 g/ha (Cotton (CT) [3]; 4 lb/acre): 100%
- pest or weed control at 560.425 g/ha (Bean (BN) [4]; 0.5 lb/acre): 10%
- pest or weed control at 1120.85 g/ha (Bean (BN) [4]; 1 lb/acre): 70%
- pest or weed control at 2241.7 g/ha (Bean (BN) [4]; 2 lb/acre): 70%
- pest or weed control at 4483.4 g/ha (Bean (BN) [4]; 4 lb/acre): 100%
- pest or weed control at 560.425 g/ha (Turnip (TP) [5]; 0.5 lb/acre): 60%
- pest or weed control at 1120.85 g/ha (Turnip (TP) [5]; 1 lb/acre): 60%
- pest or weed control at 2241.7 g/ha (Turnip (TP) [5]; 2 lb/acre): 90%
- pest or weed control at 4483.4 g/ha (Turnip (TP) [5]; 4 lb/acre): 100%
- pest or weed control at 560.425 g/ha (Bean (BN) [6]; 0.5 lb/acre): 100%
- pest or weed control at 1120.85 g/ha (Bean (BN) [6]; 1 lb/acre): 100%
- pest or weed control at 2241.7 g/ha (Bean (BN) [6]; 2 lb/acre): 100%
- pest or weed control at 4483.4 g/ha (Bean (BN) [6]; 4 lb/acre): 100%
- pest or weed control at 560.425 g/ha (Amaranth pigweed (PW); 0.5 lb/acre): 40%
- pest or weed control at 1120.85 g/ha (Amaranth pigweed (PW); 1 lb/acre): 90%
- pest or weed control at 2241.7 g/ha (Amaranth pigweed (PW); 2 lb/acre): 100%
- pest or weed control at 4483.4 g/ha (Amaranth pigweed (PW); 4 lb/acre): 100%
- pest or weed control at 560.425 g/ha (Cotton (CT) [7]; 0.5 lb/acre): 30%
- pest or weed control at 1120.85 g/ha (Cotton (CT) [7]; 1 lb/acre): 50%
- pest or weed control at 2241.7 g/ha (Cotton (CT) [7]; 2 lb/acre): 50%
- pest or weed control at 4483.4 g/ha (Cotton (CT) [7]; 4 lb/acre): 90%
- pest or weed control at 560.425 g/ha (Barnyard grass (BG); 0.5 lb/acre): 30%
- pest or weed control at 1120.85 g/ha (Barnyard grass (BG); 1 lb/acre): 60%
- pest or weed control at 2241.7 g/ha (Barnyard grass (BG); 2 lb/acre): 90%
- pest or weed control at 4483.4 g/ha (Barnyard grass (BG); 4 lb/acre): 100%
- pest or weed control at 560.425 g/ha (Johnson grass (JG); 0.5 lb/acre): 50%
- pest or weed control at 1120.85 g/ha (Johnson grass (JG); 1 lb/acre): 50%
- pest or weed control at 2241.7 g/ha (Johnson grass (JG); 2 lb/acre): 60%
- pest or weed control at 4483.4 g/ha (Johnson grass (JG); 4 lb/acre): 100%
- pest or weed control at 560.425 g/ha (Turnip (TP) [8]; 0.5 lb/acre): 100%
- pest or weed control at 1120.85 g/ha (Turnip (TP) [8]; 1 lb/acre): 100%
- pest or weed control at 2241.7 g/ha (Turnip (TP) [8]; 2 lb/acre): 100%
- pest or weed control at 4483.4 g/ha (Turnip (TP) [8]; 4 lb/acre): 100%
- pest or weed control at 560.425 g/ha (Corn (CN); 0.5 lb/acre): 10%
- pest or weed control at 1120.85 g/ha (Corn (CN); 1 lb/acre): 50%
- pest or weed control at 2241.7 g/ha (Corn (CN); 2 lb/acre): 50%
- pest or weed control at 4483.4 g/ha (Corn (CN); 4 lb/acre): 60%
